The text below walks through data of paper PMC11599453 (The Journal of Biological Chemistry, 2024).

One assay has as its target T1, CRISP2^L98G Y99P (Homo sapiens, UniProt P16562, L98G/Y99P).
T1 construct: made in house; host or cells: E. coli BL21
T1 sequence (P16562 22-243 L98G/Y99P): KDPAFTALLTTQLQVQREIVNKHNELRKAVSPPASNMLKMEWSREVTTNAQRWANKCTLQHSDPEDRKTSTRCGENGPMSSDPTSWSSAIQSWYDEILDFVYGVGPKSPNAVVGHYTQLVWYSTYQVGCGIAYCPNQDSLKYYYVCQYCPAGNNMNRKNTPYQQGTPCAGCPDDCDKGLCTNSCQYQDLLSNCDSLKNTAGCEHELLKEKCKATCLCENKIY
As to the kind of experiment: MST binding to labeled CRISP2 L98G Y99P mutant. As to the method: (§1) To assess protein-protein and protein-lipid interactions, MST experiments were performed using a Monolith NT.115 (Nanotemper Technologies). […] Samples were loaded into MST standard capillaries, and MST measurements were performed using an 80% laser power setting. The dissociation constant Kd was obtained by plotting the fraction bound against the logarithm of ligand concentration, using Prism software to fit a binding curve to the data point using the "one site specific" binding option. All MST measurements were performed in triplicate, with each set of experiments including a negative control to rule out nonspecific binding.

Assay [1] addresses T2, CRISP2 (Homo sapiens, UniProt P16562).
T2 sequence (P16562 22-243): T1 sequence (P16562 22-243 L98G/Y99P) with G77L, P78Y
T2 sequence (P04217 with tags, fused parts or gaps partner): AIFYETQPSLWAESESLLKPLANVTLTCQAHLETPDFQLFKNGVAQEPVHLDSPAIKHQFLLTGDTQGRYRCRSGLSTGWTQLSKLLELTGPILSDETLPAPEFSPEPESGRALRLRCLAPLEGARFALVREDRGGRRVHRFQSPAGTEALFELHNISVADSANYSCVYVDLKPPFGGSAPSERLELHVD
The assay is described as follows: Microscale thermophoresis (MST) binding to fluorescently labeled CRISP2. Conditions: Kd of cholesterol sulfate binding by CRISP2 in the presence of Ig1, MST; CRISP2-Ig1. As to the method:
(§2) MST is based on the diffusion of a fluorescently labeled molecule along a microscopic temperature gradient. In this assay, the free protein diffuses faster than its ligand-bound form. Ligands can range from small ions to low molecular weight compounds, liposomes, and even entire viruses ([35], [39], [40], [41]).
as §1

For assay [2], the target named is T3, CRISP2 (Homo sapiens, UniProt P16562).
T3 sequence (P16562 22-243): T1 sequence (P16562 22-243 L98G/Y99P) with G77L, P78Y
The assay is described as above. As to the method: as §2, §1

For assay [3], the target named is CRISP2 (cysteine-rich secretory protein 2), purified, fluorescently labeled (UniProt P16562). As to the kind of experiment: MST; 100 nM RED-tris-NTA-labeled CRISP2 (or L98G Y99P mutant) mixed with a serial dilution of unlabeled A1BG or Ig domain; 20 mM Tris pH 7.5, 30 mM NaCl, 0.05% Triton X-100; Monolith NT.115, 80% laser power; one site specific fit; triplicates.

For a further assay, the target named is T4, A1BG (Homo sapiens, UniProt P04217).
T4 construct: made in house; host or cells: E. coli BL21
T4 sequence (P04217 22-495): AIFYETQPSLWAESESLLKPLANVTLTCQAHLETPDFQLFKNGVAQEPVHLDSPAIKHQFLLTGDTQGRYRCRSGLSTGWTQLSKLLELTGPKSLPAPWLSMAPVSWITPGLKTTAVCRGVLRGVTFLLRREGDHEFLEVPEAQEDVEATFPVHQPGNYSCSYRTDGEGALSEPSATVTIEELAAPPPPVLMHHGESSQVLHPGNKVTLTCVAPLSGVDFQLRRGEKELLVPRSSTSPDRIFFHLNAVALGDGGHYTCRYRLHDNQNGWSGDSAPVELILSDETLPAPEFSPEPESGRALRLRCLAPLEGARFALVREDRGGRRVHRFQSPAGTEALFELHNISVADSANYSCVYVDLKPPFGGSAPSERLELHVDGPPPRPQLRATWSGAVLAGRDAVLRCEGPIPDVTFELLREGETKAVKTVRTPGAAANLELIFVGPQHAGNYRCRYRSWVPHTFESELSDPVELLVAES
As to the kind of experiment: MST lipid binding to A1BG. The conditions noted are these: A1BG alone. The protocol: as §1

Where a chain is given by its changes, count along the chain named. Where “and” joins values, the source holds several entries; their conditions need not be identical. Identical values can stand only once. Counter-ions that a name gives are not always drawn.

`CC(C)CCC[C@@H](C)[C@H]1CC[C@H]2[C@@H]3CC=C4C[C@@H](OS(=O)(=O)O)CC[C@]4(C)[C@H]3CC[C@]12C` [cholesterol sulfate]: the “Kd of cholesterol sulfate binding by CRISP2 L98G Y99P in the presence of Ig3” value on CRISP2^L98G Y99P is “inhibited”. The Kd was 4000 ± 1980 nM at CRISP2 [1]; 70 ± 20 nM on CRISP2 [2] (Kd of cholesterol sulfate binding by CRISP2 + EDTA + MgCl2, MST, EDTA 5 mM, MgCl2 10 mM); 3210 nM and 2630 nM on CRISP2 [2] (Kd of cholesterol sulfate binding by CRISP2, MST, CRISP2 alone); 2050 ± 760 nM on CRISP2 [2] (Kd of cholesterol sulfate binding by CRISP2 in the presence of Ig4, MST, CRISP2-Ig4). Also, the “Kd of cholesterol sulfate binding by CRISP2 in the presence of A1BG” value at CRISP2 [2] (MST, equimolar concentration of A1BG) is reported as “blocked”.

In assay [3], “Ig3 domain of A1BG, purified (domain or fragment)” returned a Kd of 13.8 nM.

The compound “Ig1 domain of A1BG, purified (domain or fragment)” came in with a dissociation constant (Kd) in assay [3] of 38.7 nM.

`CCCCCCCCCCCCCCCC(=O)O` [palmitic acid]: the “Kd of palmitic acid binding by A1BG” value at A1BG is recorded as “did not bind”. Also, the Kd at CRISP2 [2] (Kd of palmitic acid binding by CRISP2, MST, CRISP2 alone) worked out at 64600 ± 20700 nM; on CRISP2 [2] (Kd of palmitic acid binding by CRISP2 in the presence of A1BG, MST, CRISP2+A1BG) it was 70000 ± 22700 nM.

By Kd is commonly meant the constant that tells how readily two partners part at equilibrium.
